Results as given in ChEMBL document CHEMBL4390691, “Discovery of 1,3-dihydro-2H-imidazo[4,5-c]quinolin-2-ones based novel, potent and PI3Kδ selective inhibitors” (Bioorg Med Chem Lett, 2019).
pIC50: −log10 of the molar value.

Experiments:
[1] = target: T1, Phosphatidylinositol 4,5-bisphosphate 3-kinase catalytic subunit delta isoform (Homo sapiens, UniProt O00329); assay: Inhibition of human PI3Kdelta using PIP2 as substrate after 1 hr
T1 sequence (O00329 whole entry): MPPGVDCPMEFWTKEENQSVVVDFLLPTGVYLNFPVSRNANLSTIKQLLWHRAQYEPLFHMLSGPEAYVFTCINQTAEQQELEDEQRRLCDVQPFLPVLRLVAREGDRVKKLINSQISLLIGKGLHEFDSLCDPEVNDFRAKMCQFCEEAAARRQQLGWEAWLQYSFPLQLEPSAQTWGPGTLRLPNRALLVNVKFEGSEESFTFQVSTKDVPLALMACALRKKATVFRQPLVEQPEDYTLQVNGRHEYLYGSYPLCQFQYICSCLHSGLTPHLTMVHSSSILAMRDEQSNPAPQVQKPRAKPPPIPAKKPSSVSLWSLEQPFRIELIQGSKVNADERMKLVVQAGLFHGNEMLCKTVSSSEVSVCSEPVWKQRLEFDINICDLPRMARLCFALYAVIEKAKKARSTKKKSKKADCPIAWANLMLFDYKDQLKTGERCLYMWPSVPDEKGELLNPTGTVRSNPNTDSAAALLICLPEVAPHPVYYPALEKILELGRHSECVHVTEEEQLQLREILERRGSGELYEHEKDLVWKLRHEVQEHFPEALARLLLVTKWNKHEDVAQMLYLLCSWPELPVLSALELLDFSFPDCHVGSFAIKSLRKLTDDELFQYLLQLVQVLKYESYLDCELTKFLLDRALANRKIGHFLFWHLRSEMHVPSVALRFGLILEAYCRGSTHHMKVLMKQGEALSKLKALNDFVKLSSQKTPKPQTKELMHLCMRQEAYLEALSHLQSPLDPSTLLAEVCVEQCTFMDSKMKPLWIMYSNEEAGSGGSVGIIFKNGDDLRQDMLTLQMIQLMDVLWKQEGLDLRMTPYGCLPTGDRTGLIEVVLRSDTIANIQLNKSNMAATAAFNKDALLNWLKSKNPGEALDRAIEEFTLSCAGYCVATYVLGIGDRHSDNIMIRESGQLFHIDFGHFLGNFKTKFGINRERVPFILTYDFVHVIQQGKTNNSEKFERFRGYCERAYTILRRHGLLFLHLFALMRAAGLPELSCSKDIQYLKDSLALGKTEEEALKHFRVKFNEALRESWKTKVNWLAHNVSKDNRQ

[2] = target: Phosphatidylinositol 4,5-bisphosphate 3-kinase catalytic subunit alpha isoform (Homo sapiens, UniProt P42336); assay: Inhibition of human PI3Kalpha using PIP2 as substrate after 1 hr
[3] = target: Phosphatidylinositol 4,5-bisphosphate 3-kinase catalytic subunit beta isoform (Homo sapiens, UniProt P42338); assay: Inhibition of human PI3Kbeta using PIP2 as substrate after 1 hr
[4] = target: Phosphatidylinositol 4,5-bisphosphate 3-kinase catalytic subunit gamma isoform (Homo sapiens, UniProt P48736); assay: Inhibition of human PI3Kgamma using PIP2 as substrate after 1 hr
[5] = target: Serine/threonine-protein kinase mTOR (Homo sapiens, UniProt P42345); assay: Inhibition of mTOR (unknown origin) assessed as reduction in p70S6K phosphorylation

Chain of Phosphatidylinositol 4,5-bisphosphate 3-kinase catalytic subunit gamma isoform (P48736 whole entry, canonical isoform): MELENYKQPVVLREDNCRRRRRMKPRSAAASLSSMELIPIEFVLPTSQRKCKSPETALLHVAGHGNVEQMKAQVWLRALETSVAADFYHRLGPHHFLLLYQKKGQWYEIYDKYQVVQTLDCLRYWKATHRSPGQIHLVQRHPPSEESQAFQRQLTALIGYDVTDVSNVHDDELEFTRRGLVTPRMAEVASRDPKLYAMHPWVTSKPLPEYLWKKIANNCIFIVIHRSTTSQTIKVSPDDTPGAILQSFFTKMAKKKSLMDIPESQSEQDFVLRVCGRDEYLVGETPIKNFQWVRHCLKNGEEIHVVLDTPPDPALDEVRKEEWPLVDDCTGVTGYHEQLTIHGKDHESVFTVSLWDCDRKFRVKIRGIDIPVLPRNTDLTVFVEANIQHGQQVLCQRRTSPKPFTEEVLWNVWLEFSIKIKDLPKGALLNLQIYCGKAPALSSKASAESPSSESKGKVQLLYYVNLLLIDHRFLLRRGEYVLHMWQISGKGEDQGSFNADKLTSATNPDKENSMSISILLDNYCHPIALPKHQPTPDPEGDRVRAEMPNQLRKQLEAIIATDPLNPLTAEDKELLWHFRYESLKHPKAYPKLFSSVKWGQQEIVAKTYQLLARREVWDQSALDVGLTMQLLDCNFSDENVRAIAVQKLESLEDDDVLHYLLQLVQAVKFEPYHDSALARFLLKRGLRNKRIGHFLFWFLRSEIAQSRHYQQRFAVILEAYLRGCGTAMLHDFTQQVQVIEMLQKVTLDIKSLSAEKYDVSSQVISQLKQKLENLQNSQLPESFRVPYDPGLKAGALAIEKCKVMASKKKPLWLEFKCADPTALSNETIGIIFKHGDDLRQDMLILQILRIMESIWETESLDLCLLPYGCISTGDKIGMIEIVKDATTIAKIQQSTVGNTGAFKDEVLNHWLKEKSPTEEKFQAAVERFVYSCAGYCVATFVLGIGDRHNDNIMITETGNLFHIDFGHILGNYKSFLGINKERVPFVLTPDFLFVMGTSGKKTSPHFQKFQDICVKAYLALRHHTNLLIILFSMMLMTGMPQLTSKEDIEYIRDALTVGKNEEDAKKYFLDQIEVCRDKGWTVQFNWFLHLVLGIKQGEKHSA
Chain of Phosphatidylinositol 4,5-bisphosphate 3-kinase catalytic subunit beta isoform (P42338 whole entry, canonical isoform): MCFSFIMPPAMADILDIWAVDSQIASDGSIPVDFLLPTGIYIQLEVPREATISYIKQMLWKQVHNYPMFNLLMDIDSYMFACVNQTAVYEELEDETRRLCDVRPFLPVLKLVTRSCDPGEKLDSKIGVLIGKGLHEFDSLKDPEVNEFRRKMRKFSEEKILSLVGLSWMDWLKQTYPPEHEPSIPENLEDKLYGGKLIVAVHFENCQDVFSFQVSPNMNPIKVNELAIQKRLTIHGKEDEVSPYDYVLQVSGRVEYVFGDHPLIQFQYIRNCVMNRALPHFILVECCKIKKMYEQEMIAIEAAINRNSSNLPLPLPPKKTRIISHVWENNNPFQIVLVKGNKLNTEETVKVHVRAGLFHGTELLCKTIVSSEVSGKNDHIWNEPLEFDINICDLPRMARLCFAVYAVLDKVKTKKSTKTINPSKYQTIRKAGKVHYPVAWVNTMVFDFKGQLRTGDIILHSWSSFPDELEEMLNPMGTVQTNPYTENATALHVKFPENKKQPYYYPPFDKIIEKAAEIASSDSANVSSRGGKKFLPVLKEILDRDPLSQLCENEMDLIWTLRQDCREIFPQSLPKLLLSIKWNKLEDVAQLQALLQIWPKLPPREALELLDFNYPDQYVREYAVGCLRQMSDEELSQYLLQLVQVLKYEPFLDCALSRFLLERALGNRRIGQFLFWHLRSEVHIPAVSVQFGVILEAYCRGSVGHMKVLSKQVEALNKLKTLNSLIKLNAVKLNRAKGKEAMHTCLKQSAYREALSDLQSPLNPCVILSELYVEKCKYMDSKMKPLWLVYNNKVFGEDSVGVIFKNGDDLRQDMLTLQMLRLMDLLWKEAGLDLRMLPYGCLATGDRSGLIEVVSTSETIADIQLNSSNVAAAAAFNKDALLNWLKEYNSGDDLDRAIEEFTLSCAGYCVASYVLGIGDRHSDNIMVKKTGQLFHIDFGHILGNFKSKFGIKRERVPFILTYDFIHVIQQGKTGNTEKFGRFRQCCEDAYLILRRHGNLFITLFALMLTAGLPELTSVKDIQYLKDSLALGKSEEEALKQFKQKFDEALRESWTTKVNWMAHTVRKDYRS
Chain of Phosphatidylinositol 4,5-bisphosphate 3-kinase catalytic subunit alpha isoform (P42336 whole entry, looked up, canonical isoform): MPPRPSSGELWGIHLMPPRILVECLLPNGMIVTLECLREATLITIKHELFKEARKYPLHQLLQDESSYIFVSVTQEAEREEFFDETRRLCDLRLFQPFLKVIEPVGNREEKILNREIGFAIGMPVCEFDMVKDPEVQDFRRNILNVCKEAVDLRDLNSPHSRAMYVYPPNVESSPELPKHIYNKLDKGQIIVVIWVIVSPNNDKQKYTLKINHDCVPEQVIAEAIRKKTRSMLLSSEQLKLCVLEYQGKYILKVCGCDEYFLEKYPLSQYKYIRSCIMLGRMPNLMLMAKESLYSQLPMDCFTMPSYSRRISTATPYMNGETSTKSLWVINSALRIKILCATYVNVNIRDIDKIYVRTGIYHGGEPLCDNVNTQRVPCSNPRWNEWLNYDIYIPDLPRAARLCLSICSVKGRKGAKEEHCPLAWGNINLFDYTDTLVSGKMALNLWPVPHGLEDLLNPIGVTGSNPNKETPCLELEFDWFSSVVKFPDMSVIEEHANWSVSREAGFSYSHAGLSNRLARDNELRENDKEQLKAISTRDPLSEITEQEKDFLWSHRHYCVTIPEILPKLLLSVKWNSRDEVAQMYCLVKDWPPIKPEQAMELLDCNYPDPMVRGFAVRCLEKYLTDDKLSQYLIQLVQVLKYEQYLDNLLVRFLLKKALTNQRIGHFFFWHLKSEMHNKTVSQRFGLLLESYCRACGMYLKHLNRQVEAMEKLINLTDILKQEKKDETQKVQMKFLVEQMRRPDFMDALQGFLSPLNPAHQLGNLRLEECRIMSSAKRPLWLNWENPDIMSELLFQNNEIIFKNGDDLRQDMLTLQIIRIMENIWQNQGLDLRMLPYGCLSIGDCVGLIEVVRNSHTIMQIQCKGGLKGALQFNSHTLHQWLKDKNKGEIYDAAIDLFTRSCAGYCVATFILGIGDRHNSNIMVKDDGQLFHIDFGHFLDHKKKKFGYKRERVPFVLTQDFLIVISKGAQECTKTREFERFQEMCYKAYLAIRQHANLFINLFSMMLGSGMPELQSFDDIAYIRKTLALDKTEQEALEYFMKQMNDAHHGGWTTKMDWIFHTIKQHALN

pIC50 [1] | SMILES | also measured
7.55 | CC(C)c1ccc(Cn2c(=O)n(C)c3c4cc(-c5cnc6ccccc6c5)ccc4ncc32)cc1 | 
8.21 | COc1ccc(Cn2c(=O)n(C)c3c4cc(-c5cnc(OC)c(NS(=O)(=O)C(C)C)c5)ccc4ncc32)cc1 | 
7.74 | Cc1ccc(Cn2c(=O)n(C)c3c4cc(-c5cnc6ccccc6c5)ccc4ncc32)cc1 | 
7.70 | COc1ccc(Cn2c(=O)n(C)c3c4cc(-c5cccnc5)ccc4ncc32)cc1 | 
8.39 | COc1ccc(Cn2c(=O)n(C)c3cnc4ccc(-c5cnc(OC)c(NS(C)(=O)=O)c5)cc4c32)cc1 | pIC50 [2]: 6.54; pIC50 [3]: 6.62; pIC50 [4]: 7.38; pIC50 [5]: 6.24
7.94 | COc1ccc(Cn2c(=O)n(C)c3c4cc(-c5ccc(OC)nc5)ccc4ncc32)cc1 | 
